In patent publication US20090209605A1, “NEMATICIDAL COMPOSITIONS” (Devgen N.V., priority 2004, published 2009):

Experiments:
Format in all cases: in vivo
[1] = system: Meloidogyne incognita; experiment: Root infestation on agar plate: root knot count on potato microplant roots; settings: 60 μM in agar, galls counted 5 weeks after inoculation, four replicates
Experimental: 9 cm petri dishes were filled with a 15 ml agar. One stem cutting of a potato microplant (Solanum tuberosum cv. Desirée) was placed on top of the agar layer. After 2 to 3 weeks of incubation at 20° C., the root system was sufficiently developed to be inoculated.
The test compounds (see Table 1) were added 2 days before inoculation by way of spreading a 2 ml DMSO-solution with the compound over the agar and allowing the compound to diffuse in the agar during two days at constant temperature of 20° C. During incubation, the plates are protected from light in a dark incubator. The resulting concentration of each compound in each agar plate was 60 μM.
After incubation, approximately 400 axenic juveniles of Meloidogyne incognita species were added to the plate.
The plates were incubated in the dark at a constant temperature of 20° C. and 5 weeks after inoculation the number of galls formed on the roots were determined by counting. Also any toxic effect of the test compounds on the roots was recorded. 8 weeks after inoculation the plates were stored at low temperature.
Each compound was tested in four replicates. Positive controls were treated with different concentrations of Aldicarb, a known nematicide. Negative controls included 5 replicates of double negative controls (no compound, no nematode), 5 replicates of single negative controls (no compound, with nematode) and 5 replicates of DMSO controls (DMSO solution, with nematode).

[2] = system: Meloidogyne incognita nematodes; experiment: Pot Assay 1: Meloidogyne infection of potato, egg masses/galls on roots; settings: for number of egg masses (galls) on roots, Replicate 1 / number of egg masses (galls) on roots, Replicate 2 / number of egg masses (galls) on roots, Replicate 3: potato in pot, week 8 after inoculation
Experimental: 500 ml clay pots were filled with 400 ml of silver sand. One tuber of potato ( Solanum tuberosum cv. Bintje) was planted in the sand. After 2 to 3 weeks incubation, the potato plant was sufficiently developed to be inoculated.
Plants were grown under the usual standard greenhouse conditions at 14° C.-18° C., with 16 hours light and 8 hours dark and 80-90% relative humidity. The pots were watered using individual drippers and fertilizers were added under the form of macro- and micro nutrients according to plant growth requirements. When needed, the plants were sprayed with fungicides and insecticides.
The compounds as described herein were added one day before inoculation. The compounds were dissolved in a 20 ml DMSO-solution and spread over the sand surface. The final concentration is calculated under the assumption that the compound is diffused entirely in the pot. This process occurred during two days at the normal greenhouse conditions described above.
After compound incubation, approximately 1500 juveniles of Meloidogyne incognita nematodes were added to the pots.
The pots were incubated at the described greenhouse conditions until nematode development was completed. At week 8 after inoculation the number of galls formed on the roots was counted after washing off the sandy substrate. Also the effect of the compound on the plant development was recorded.
Every compound was tested in three replicates. Positive control plants were treated with different concentrations of aldicarb, a known nematicide. Negative controls involved 12 replicates of double negative controls (no compound, no nematode), 12 replicates of single negative controls (no compound, no DMSO, with nematode), 24 replicates of DMSO controls (DMSO solution, with nematode).
As assessment of the root development was taken into account.

[3] = system: Meloidogyne nematodes; experiment: Pot Assay 2: Meloidogyne infection of tomato, % infestation of roots; settings: for % INF. (% Infestation): tomato in infested soil
Experimental: The soil used in this assay originated from a plot, heavily infested with Meloidogyne nematodes. Part of this soil was sterilized by autoclaving and was used as negative control. Sandy soil, which was not infested with nematodes, was pursued from a commercial source.
Plastic seedling trays with wells of 60 ml capacity were filled with about 40 ml of soil per well. 5 ml of water per well was used for irrigation.
Compounds as described herein were tested in 4 different rates and with 12 replicates for each concentration. The compounds as described herein were stored as dry films of 4 different concentrations. The day of the application of the compounds, all the dry films were dissolved in 60 ml water and poured into the 12 replicate wells: 5 ml per well. Every tray of 12 wells was identified with a label, indicating compound and concentration used. The 4 final rates in the soil of the tested compound were approximately 0.05 mg, 0.20 mg, 1 mg and 5 mg. These amounts translate to field application rates respectively as 30, 120, 600 and 3000 g per hectare.
3-5 days after application of the tested compound, tomato seeds (cv. Rio Grande) were sown in the wells by hand, at about 2 cm deep. A light cover of vermiculite on the surface was used to avoid dehydration. Plants were irrigated by micro-nebulization 3-4 times per week at a rate of 3 L/m^2, weeded by hand and treated with fertilizers, fungicide and insecticides when needed.
Their resistance against nematode infection was monitored and the efficacy of compounds described herein as a nematicide was measured. Furthermore the phytotoxicity of the test compounds was evaluated.
Efficacy of the compounds described herein as nematicide was measured by giving the roots a percentage of infestation measured as follows. Plants were grown to reach good development of the roots, which corresponds to plants grown to about 10 cm high at about one month after emergence. After removal of the soil from the roots by rinsing with water, the roots were visually inspected and root galls were counted on 4 plants of the set of 12 replicate plants.
Positive control plants were treated with a 10 micromolar concentration of oxamyl (Vydate, 10% SL; the rate of 10 micromolar corresponds to a commercial rate of 20 l/ha), a known nematicide. Negative controls involved double negative controls (no compound, sterile soil), and single negative controls (no compound, with nematode infested soil).

[4] = system: tomato (cv. Rio Grande); experiment: Pot Assay 2: root development (vigor of roots) of tomato; settings: for ROOT DEV.: visual value 0 to 10 (10 equal to control)
Experimental: Phytotoxicity of compounds as described herein when used as a nematicide, was measured as follows. […] At that moment, plant emergence was assessed for the plants treated with any of the compounds as described herein, by counting the number of plants per compound-concentration.
Vigor of roots was also assessed once the plants are well established so as not to loose plants. To assess vigor of the plants or roots, a visual value ranging from 0 to 10 (0 no vigor, 10 equal to control) was scored per compound-concentration.

[5] = reference, 10 micromolar (Vydate, 10% SL)
[6] = highest concentration of the reference compound

Row | SMILES | Root knot count, average of the replicate counts [1] | % INF. (% Infestation) ([3]; RATE 0.05 mg) | % INF. (% Infestation) ([3]; RATE 0.2 mg) | % INF. (% Infestation) ([3]; RATE 1 mg) | ROOT DEV. ([4]; RATE 0.05 mg) | ROOT DEV. ([4]; RATE 0.2 mg) | ROOT DEV. ([4]; RATE 1 mg) | other results
1 | O=C(NC(=O)c1c(F)cccc1F)Nc1cc(Cl)c(Oc2ncc(C(F)(F)F)cc2Cl)c(Cl)c1 [LI] | 17.5 |  |  |  |  |  |  | 
2 | Cc1c(F)c(F)c(COC(=O)C2C(C=C(Cl)C(F)(F)F)C2(C)C)c(F)c1F (racemic) [LVIII] | 18.25 |  |  |  |  |  |  | number of egg masses (galls) on roots, Replicate 1 ([2]; 50 μM): 60; number of egg masses (galls) on roots, Replicate 2 ([2]; 50 μM): 100; number of egg masses (galls) on roots, Replicate 3 ([2]; 50 μM): 30
3 | Cc1cc(C)nc(Nc2ccccc2)n1 [XLVI] | 18.25 |  |  |  |  |  |  | 
4 | CC(C)=CC1C(C(=O)OCc2coc(Cc3ccccc3)c2)C1(C)C (mixture of isomers) [LVII] | 8.5 |  |  |  |  |  |  | 
5 | CCc1nn(C)c(C(=O)NCc2ccc(C(C)(C)C)cc2)c1Cl [XXXVIII] | 16.5 |  |  |  |  |  |  | number of egg masses (galls) on roots, Replicate 1 ([2]; 50 μM): 40; number of egg masses (galls) on roots, Replicate 2 ([2]; 50 μM): 70; number of egg masses (galls) on roots, Replicate 3 ([2]; 50 μM): 1
6 | N#Cc1c(Cl)c(Cl)c(Cl)c(C#N)c1Cl [IV] | 11.5 |  |  |  |  |  |  | 
7 | CCC(N)P(=O)(O)O (stereo not drawn) [II] | 6.5 | 0.0% | 0.0% | 0.0% | 6.7 | 7.3 | 7.3 | % INF. (% Infestation) ([3]; RATE 5 mg): 0.0%; ROOT DEV. ([4]; RATE 5 mg): 7.9
8 | Cc1cccc(C)c1N(C(=O)CCl)C1CCOC1=O (stereo not drawn) [LIV] | 14.5 | 5.0% | 5.0% | 3.8% | 7.5 | 7.2 | 7.6 | % INF. (% Infestation) ([3]; RATE 5 mg): 2.5%; ROOT DEV. ([4]; RATE 5 mg): 6.6
9 | CNC1=C(c2cccc(C(F)(F)F)c2)C(=O)C(c2ccccc2)O1 (racemic) [XV] | 18 |  |  |  |  |  |  | 
10 | CC(C)(C)N(NC(=O)c1ccc(Cl)cc1)C(=O)c1ccccc1 [XIX] | 10.75 |  |  |  |  |  |  | number of egg masses (galls) on roots, Replicate 3 ([2]; 10 μM): 80; number of egg masses (galls) on roots, Replicate 1 ([2]; 50 μM): 60; number of egg masses (galls) on roots, Replicate 2 ([2]; 50 μM): 45; number of egg masses (galls) on roots, Replicate 3 ([2]; 50 μM): 20
11 | CNC(=O)O/N=C(\SC)C(=O)N(C)C [Oxamyl, reference compound] |  |  |  | 13.8% |  |  | 7.5 | percentage of infestation [3, 5]: 13.8%; root development [4, 5]: 7.5
12 | Nc1nc(N)nc(NC2CC2)n1 [XLV] | 19.5 |  |  |  |  |  |  | 
13 | CCOc1ccc([Si](C)(C)CCCc2ccc(F)c(Oc3ccccc3)c2)cc1 [XXXIII] | 17.5 |  |  |  |  |  |  | 
14 | COc1ccc(/C(=C/C(=O)N2CCOCC2)c2ccc(Cl)cc2)cc1OC [X] | 10.5 | 5.0% | 1.3% |  | 6.8 | 7.9 |  | 
15 | CC1COC(Cn2cncn2)(c2ccc(Oc3ccc(Cl)cc3)cc2Cl)O1 (mixture of isomers) [XLIX] | 19.25 |  |  | 0.0% |  |  | 7.9 | number of egg masses (galls) on roots, Replicate 1 ([2]; 10 μM): 70; number of egg masses (galls) on roots, Replicate 2 ([2]; 10 μM): 60; number of egg masses (galls) on roots, Replicate 3 ([2]; 10 μM): 40; number of egg masses (galls) on roots, Replicate 2 ([2]; 50 μM): 60; number of egg masses (galls) on roots, Replicate 3 ([2]; 50 μM): 10
16 | Clc1nc(Cl)nc(Nc2ccccc2Cl)n1 [XLII] | 17.25 | 3.8% | 0.0% | 0.0% | 6.8 | 6.9 | 8.2 | % INF. (% Infestation) ([3]; RATE 5 mg): 0.0%; ROOT DEV. ([4]; RATE 5 mg): 8.1
17 | CCNC(=O)NC(=O)C(C#N)=NOC [LII] | 15.5 |  |  |  |  |  |  | 
18 | CNC(=O)O/N=C/C(C)(C)SC [Aldicarb, reference compound] |  |  |  |  |  |  |  | egg mass development (number of egg masses) [2, 6]: 41; reduction of the egg mass development, fraction of control [2, 6]: about ⅓; effect on the nematode development ([2]; three lowest concentrations of the reference compound): no effect
19 | CCCCOCCOCCOCc1cc2c(cc1CCC)OCO2 [XXXII] | 19.25 | 0.0% | 0.0% | 1.3% | 6.5 | 7.6 | 7.6 | % INF. (% Infestation) ([3]; RATE 5 mg): 2.5%; ROOT DEV. ([4]; RATE 5 mg): 6.7
20 | CS(=O)(=O)c1cc(C(F)(F)F)ccc1C(=O)c1cnoc1C1CC1 [XXVI] | 8.75 | 1.3% | 3.8% | 0.0% | 7.4 | 6.6 | 7.8 | 
21 | CC(C)(C)C(O)C(Oc1ccc(-c2ccccc2)cc1)n1cncn1 (stereo not drawn) [XLVIII] | 12.75 | 0.0% | 1.3% | 3.8% | 7.5 | 7.4 | 7.2 | % INF. (% Infestation) ([3]; RATE 5 mg): 1.3%; ROOT DEV. ([4]; RATE 5 mg): 7.8
22 | O=[N+]([O-])N=C1NCCN1Cc1ccc(Cl)nc1 [XXII] | 12 |  |  |  |  |  |  | 
23 | C#CCOC(=O)/C=C(C)/C=C/CC(C)CCCC(C)C (stereo not drawn) [XXVIII] | 8.5 | 2.5% | 1.3% |  | 7.4 | 7.8 |  | 
24 | CC(C)N(C(=O)COc1nnc(C(F)(F)F)s1)c1ccc(F)cc1 [XIII] | 9.5 |  |  |  |  |  |  | number of egg masses (galls) on roots, Replicate 3 ([2]; 10 μM): 40; number of egg masses (galls) on roots, Replicate 1 ([2]; 50 μM): 60; number of egg masses (galls) on roots, Replicate 3 ([2]; 50 μM): 30
25 | CC(C)=CC1C(C(=O)OCN2C(=O)C3=C(CCCC3)C2=O)C1(C)C (mixture of isomers) [LIX] | 19 |  |  |  |  |  |  | 
26 | COCC(=O)N(c1c(C)cccc1C)N1CCOC1=O [LV] | 17.75 |  |  |  |  |  |  | 
